Source: PubChem BioAssay (NCI)
Values joined by “and” are separate entries in the source; they are usually repeats but may differ in a detail not shown here. Identical values can stand only once.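 96-well plates; 48 h exposure; 5 concentrations. Endpoints by linear interpolation between flanking doses. Not reached: highest tested concentration assigned. At the GI50, growth is halved. At the TGI there is no net growth.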

Key:
Experiment in all cases: inhibition of tumour cell growth, NCI panel, 48 h
OVCAR-3 ovarian = test system: OVCAR-3 ovarian
SK-MEL-2 melanoma = test system: SK-MEL-2 melanoma
RXF 393 renal = test system: RXF 393 renal
CCRF-CEM leukemia = test system: CCRF-CEM leukemia
MOLT-4 leukemia = test system: MOLT-4 leukemia
SF-268 CNS = test system: SF-268 CNS
M14 melanoma = test system: M14 melanoma
SNB-19 CNS = test system: SNB-19 CNS
NCI-H522 lung = test system: NCI-H522 lung
SK-OV-3 ovarian = test system: SK-OV-3 ovarian

Compound	TGI (OVCAR-3 ovarian) [µM]	TGI (SK-MEL-2 melanoma) [µM]	TGI (RXF 393 renal) [µM]	TGI (CCRF-CEM leukemia)	TGI (MOLT-4 leukemia)	TGI (SF-268 CNS) [µM]	TGI (M14 melanoma) [µM]	TGI (SNB-19 CNS) [µM]	TGI (NCI-H522 lung) [µM]	TGI (SK-OV-3 ovarian) [µM]	GI50 (OVCAR-3 ovarian) [µM]	GI50 (SK-MEL-2 melanoma) [µM]	GI50 (RXF 393 renal) [µM]	GI50 (M14 melanoma) [µM]	GI50 (NCI-H522 lung) [µM]	GI50 (SK-OV-3 ovarian) [µM]	GI50 (CCRF-CEM leukemia) [µM]	GI50 (MOLT-4 leukemia) [µM]	GI50 (SF-268 CNS) [µM]	GI50 (SNB-19 CNS) [µM]
c1ccc(-n2cnnc2-c2nsc3ccccc23)cc1	> 100	> 100	> 100	> 100 µM	> 100 µM	> 100	> 100	> 100	–	–	–	–	–	–	–	–	–	–	–	–
C=C1C(=O)OC2/C=C(\C)C(=O)CC3OC(C)(C)OC3(C)CC(OC(=O)/C(C)=C/C)C12 (stereo not given)	> 56.5	82.8	36.7	> 21.8 µM	37.2 µM	> 61.3	> 70.3	> 100	9.82	> 100	–	–	–	–	–	–	–	–	–	–
CCN(CC)C(=S)SC(=S)N(CC)CC	> 94.4	> 100	> 100	–	> 72.8 µM	> 100	> 100	> 100	18.2	> 100	–	–	–	–	–	–	–	–	–	–
Cc1ccc(P(c2ccc(C)cc2)c2ccc(C)cc2)cc1	29.5	57.9	30	46.5 µM	44.5 µM	> 100	50.3	> 100	28.2	95.9	–	–	–	–	–	–	–	–	–	–
COc1cc(C(C)(C)C)cc(OC)c1C(O)(c1c(OC)cc(C(C)(C)C)cc1OC)c1c(OC)cc(C(C)(C)C)cc1OC	0.894	0.692	0.871	–	–	–	1.13	–	0.768	–	0.278	0.325	0.324	0.381	0.237	–	–	–	–	–
Nc1nc(N)c2ncn(-c3ccc(Cl)c(Cl)c3)c2n1	44.1	28	50.8	28.8 µM	42.5 µM	> 100	> 100	> 100	> 100	> 100	–	–	–	–	–	–	–	–	–	–
C=C(CN(C)C)C(=O)c1ccc(C)cc1C	21.3	37	9.4	2.14 µM	2.25 µM	35.4	14.5	57.7	14.4	39.6	–	–	–	–	–	–	–	–	–	–
Nc1ccc(OCC(O)N2C(=O)c3ccccc3C2=O)cc1 (stereo not given)	> 100	–	–	> 100 µM	> 100 µM	> 100	> 100	> 100	> 100	> 100	–	–	–	–	–	–	–	–	–	–
CCN=C=NCCCN(C)C	> 100	> 100	> 100	> 100 µM	> 100 µM	> 100	> 100	> 100	> 100	> 100	–	–	–	–	–	–	–	–	–	–
CN1CCC(C(=O)NNc2ccccc2)CC1	> 100	> 46.4	> 100	> 100 µM	> 100 µM	> 100	> 88.4	> 100	> 100	> 100	–	–	–	–	–	–	–	–	–	–
N=C(N)c1ccc(-c2ccc(-c3cncc4ccccc34)s2)cc1F	3.24	–	3.67	–	–	–	3.4	–	5.56	3.63	1.73	–	1.75	1.8	2.2	1.84	–	–	–	–
COc1ccc2[nH]c3c([N+](=O)[O-])ccc(Cl)c3c(=O)c2c1	31.7	58.5	32.2	10.2 µM	12.8 µM	53.6	35.9	> 80.9	36.9	> 100	–	–	–	–	–	–	–	–	–	–
C=C(C)C(=O)OC1C(C(C)CCCO)=C(CO)CC2OC(=O)C(=C)C21 (stereo not given)	54.5	61.7	27.2	> 100 µM	88.9 µM	48.8	33.8	> 100	13.1	95.7	–	–	–	–	–	–	–	–	–	–
OC(Cc1ccccc1)(Cc1ccccc1)c1ccccc1	32.8	29.6	29.3	> 100 µM	> 100 µM	29.8	33.3	67.9	32.3	–	–	–	–	–	–	–	–	–	–	–
C=C1CC23CCC4C(C)(C(=O)O)CCCC4(C)C2CCC1C3 (stereo not given)	> 100	> 100	> 100	> 100 µM	–	> 100	> 100	> 100	89.7	> 100	–	–	–	–	–	–	–	–	–	–
COC1/C=C\OC2(C)Oc3c(C)c(O)c4c(O)c(c(/C=N\OCCCc5ccccc5)c(O)c4c3C2=O)NC(=O)/C(C)=C\C=C/C(C)C(O)C(C)C(O)C(C)C(OC(C)=O)C1C (stereo not given)	9.61	5.35	6.92	6.35 µM	10.5 µM	18.3	6.76	19.7	10.7	15.4	–	–	–	–	–	–	–	–	–	–
CC(C)(C)C1(c2ccc(C3(c4ccccc4)Oc4ccccc4S3)[nH]2)Oc2ccccc2S1 (stereo not given)	> 100	> 100	> 100	> 100 µM	> 100 µM	> 100	> 100	> 100	> 100	> 100	–	–	–	–	–	–	–	–	–	–
O=[N+]([O-])c1ccc(/C=N\Nc2ccc([N+](=O)[O-])cn2)cc1	> 100	> 100	> 100	> 100 µM	> 100 µM	> 100	> 100	> 100	> 100	> 100	–	–	–	–	–	–	–	–	–	–
C[C@H](C(=O)N[C@@H](Cc1ccc(-c2ccccc2)cc1)C(=O)NC1CC(C)(C)N(C)C(C)(C)C1)c1ccc(-c2ccccc2)c(F)c1	2.56	3.55	2.28	–	–	–	3.39	–	–	–	1.19	1.61	0.884	1.74	–	–	–	–	–	–
O=S(=O)(O)c1cc(N=Nc2cc(S(=O)(=O)O)c3ccccc3c2O)ccc1/C=C/c1ccc(N=Nc2cc(S(=O)(=O)O)c3ccccc3c2O)cc1S(=O)(=O)O	> 1000	> 620	> 1000	42.5 µM and 92.7 µM	51.1 µM and 82.5 µM	> 1000	> 355	> 1000	> 669	> 876	–	–	–	–	–	–	32.5	36.3	–	–
CC(C)=CCc1c(O)ccc2c1OC1c3ccc(O)c(CC=C(C)C)c3OCC21 (stereo not given)	27	34.3	22.1	43 µM	16 µM	27	–	27.6	25.5	35.1	–	–	–	–	–	–	–	–	–	–
C[N+]1(C)CCOC(O)(c2ccccc2)C1 (stereo not given)	> 100	> 100	> 100	> 100 µM	> 100 µM	> 100	> 100	> 100	> 100	> 100	–	–	–	–	–	–	–	–	–	–
C=C(C)C1CC2=C(O1)C(=O)c1ccccc1C2=O (stereo not given)	34.4	–	33	52.7 µM	32.8 µM	–	33.1	96.6	39.4	> 100	–	–	–	–	–	–	–	–	–	–
C=C(C)[C@@H]1CC[C@]2(C(=O)Nc3ccccn3)CC[C@]3(C)[C@H](CC[C@@H]4[C@@]5(C)CCCNC(C)(C)[C@@H]5CC[C@]43C)[C@@H]12	2.92	–	3.27	> 100 µM	–	4.79	–	4.26	–	14.1	1.54	–	1.79	–	–	2.94	3.02	–	1.95	1.98
C=C1C(=O)CCC1C(=O)O (stereo not given)	> 100	> 100	> 100	> 100 µM	> 100 µM	> 100	> 100	> 100	> 100	> 100	–	–	–	–	–	–	–	–	–	–
O=Nc1ccc(O)c2ncccc12	12.4	6.39	5.61	> 100 µM	> 100 µM	17.2	20.7	74.7	3.58	31.3	–	–	–	–	–	–	–	–	–	–
C/C1=N\NC(=O)c2ccccc2C(=O)N/N=C(\C)c2cccc1n2.O=[N+]([O-])[O-].[Zn+2]	> 100	> 100	–	> 100 µM	> 100 µM	> 100	> 100	> 100	> 100	> 100	–	–	–	–	–	–	–	–	–	–
Nc1cc(S(=O)(=O)O)cc2cc(S(=O)(=O)O)c(N=Nc3ccc(-c4ccc(N=Nc5c(S(=O)(=O)O)cc6cc(S(=O)(=O)O)cc(N)c6c5O)cc4)cc3)c(O)c12	> 100	> 100	> 100	> 100 µM	> 100 µM	> 100	–	> 100	> 100	> 100	–	–	–	–	–	–	–	–	–	–
